Experiments:
[1] = stability under ethylene oxide sterilization, heating, and aging with paclitaxel; settings: reacted with paclitaxel
[2] = BPH Preclinical Study 4: tissue and plasma PK, histology

| prostate tissue drug concentration, maximum dose arm vs standard dose ([2]; 28 days) [times higher] | prostatic urethra tissue drug concentration, maximum dose arm vs standard dose ([2]; 28 days) [times higher] | prostate tissue drug concentration, maximum dose arm vs standard dose ([2]; 70 days) [times higher] | prostatic urethra tissue drug concentration, maximum dose arm vs standard dose ([2]; 70 days) [times higher] | clinical abnormalities ([2]; all animals, duration of the study) | histology of the prostate ([2]; maximum dose animals, 28 days, slower healing relative to standard dose and control) | abnormalities or complications ([2]; maximum dose treatment arm, 19.6 mg of paclitaxel) | plasma paclitaxel concentration ([2]; maximum dose, 12 hour and later) | nonurethral close proximity tissue sample concentrations ([2]; most samples, 28 days and beyond) | plasma paclitaxel concentration ([2]; standard dose, all time-points (1, 3, 7, 12 hours, 1, 3, 7, 14, 28 days)) | SMILES | stability under ethylene oxide sterilization, heating, and aging process [1] | increase of urethral luminal diameter as a result of commissurotomy ([2]; did not change between 7 days and 70 days) |
| --- | --- | --- | --- | --- | --- | --- | --- | --- | --- | --- | --- | --- |
| – | – | – | – | – | – | – | – | – | – | O=C(O)c1ccccc1 [benzoic acid] | not stable | – |
| 4.5 | 11 | 23 | 23 | No significant clinical abnormalities | ongoing healing | no abnormalities or complications | BLOQ | at or below the limit of quantification | BLOQ | CC(=O)O[C@H]1C(=O)[C@@]2(C)[C@H]([C@H](OC(=O)c3ccccc3)[C@]3(O)C[C@H](OC(=O)[C@H](O)[C@@H](NC(=O)c4ccccc4)c4ccccc4)C(C)=C1C3(C)C)[C@]1(OC(C)=O)CO[C@@H]1C[C@@H]2O [paclitaxel] | – | approximately 50% |

Source: patent US12383710B2 (Urotronic, Inc., priority 2019, dated 2025)
